Results: patent US7288555B2 (priority 2001, dated 2007)

What was measured:
[1] = test system: potato blight (Phytophthora infestans); assay type: in vivo; settings: Solanum tuberosum Bintje, infection 48 h after treatment, read after 6 days, 3 repeats, confidence interval in brackets; for ED50 (confidence interval): effective dose providing 50% control; for ED70 (confidence interval): effective dose providing 70% control; for ED90 (confidence interval): effective dose providing 90% control
[2] = test system: vine downy mildew (Plasmopara viticola); settings: in vivo

SMILES | ED50 (confidence interval) [1] | ED70 (confidence interval) [1] | ED90 (confidence interval) [1] | ED50 (confidence interval) [2] | ED70 (confidence interval) [2]
O=C(NCc1ncc(C(F)(F)F)cc1Cl)c1c(Cl)cccc1Cl [Compound A, 2,6-dichloro-N-{[3-chloro-5-(trifluoromethyl)-2-pyridinyl]methyl}benzamide] | 19.9 (12-33) mg/l | 43.5 (24.5-77.2) mg/l | 151.2 (61.5-371.8) mg/l | 6.6 (4-10.9) mg/l | 12.5 (8-19.6) mg/l
Cc1ccc(C(C)NC(=O)[C@@H](NC(=O)OC(C)C)C(C)C)cc1 (stereo partly shown) [Compound B, iprovalicarb] | 27.8 (18.3-42.2) mg/l | 69.3 (43.7-109.9) mg/l | 296.6 (136.2-646) mg/l | 7.3 (4.9-11) mg/l | 17.5 (11.8-25.9) mg/l
